Measured values published in publication PMC11091526 (International Journal for Parasitology: Drugs and Drug …, 2024).

How the values were obtained:
[1] = tested on: N. fowleri ATCC® 30,808™ cysts; assay: microbe, parasite or virus in culture; assay type: cell-based; conditions: Naegleria fowleri, ATCC30, read-out: N. fowleri ATCC 30,808 IC50, cyst stage
[2] = tested on: N. fowleri (ATCC® 30,808™) trophozoites; assay: Chromatin condensation, Hoechst 33,342/Propidium Iodide double staining; assay type: cell-based, Naegleria fowleri; conditions: IC90, 24 h
[3] = tested on: N. fowleri (ATCC® 30,808™) trophozoites; assay: Plasma membrane permeability, SYTOX Green; assay type: cell-based, Naegleria fowleri; conditions: IC90, 24 h
[4] = tested on: N. fowleri ATCC® 30,215™ trophozoites; assay: In vitro activity against trophozoites, alamarBlue, 48 h; assay type: cell-based; conditions: Naegleria fowleri, ATCC30, 48 h, read-out: N. fowleri ATCC 30,215 IC50
[5] = tested on: N. fowleri (ATCC® 30,808™) trophozoites; assay type: cell-based, Naegleria fowleri; conditions: trophozoites treated with IC90 for 24 h
[6] = tested on: N. fowleri (ATCC® 30,808™) trophozoites; assay: Mitochondrial membrane potential depolarization, JC-1; assay type: cell-based, Naegleria fowleri; conditions: IC90, 24 h
[7] = tested on: N. fowleri ATCC® 30,808™ trophozoites; assay: In vitro activity against trophozoites, alamarBlue, 48 h; assay type: cell-based, Naegleria fowleri; conditions: for S.I. ATCC 30,808 (selectivity index CC50/IC50): CC50 J774A.1 / IC50 ATCC 30,808 trophozoites; for IC50 / IC90: Naegleria fowleri; for IC50: ATCC30, 48 h, read-out: N. fowleri ATCC 30,808 IC50, trophozoite stage; for IC90: ATCC30, read-out: N. fowleri ATCC 30,808 IC90

Structure (SMILES) | IC50 [1] [µM] | Chromatin condensation (Hoechst 33,342 blue fluorescence) [2] | Plasma membrane permeability (SYTOX Green fluorescence) [3] | IC50 [4] [µM] | Inhibition of ATP synthesis in comparison to the negative control [5] [%] | Mitochondrial membrane potential (JC-1 fluorescence) [6] | S.I. ATCC 30,808 (selectivity index CC50/IC50) [7] | IC50 [7] [µM] | IC90 [7] [µM]
C[C@@H]1[C@H](O)[C@@H](C)/C=C/C=C/C=C/C=C/C=C/C=C/C=C/[C@H](O[C@@H]2O[C@H](C)[C@@H](O)[C@H](N)[C@@H]2O)C[C@@H]2O[C@](O)(C[C@@H](O)C[C@@H](O)[C@H](O)CC[C@@H](O)C[C@@H](O)CC(=O)O[C@H]1C)C[C@H](O)[C@H]2C(=O)O [AMPHOTERICIN B, amphotericin B] | 0.53 ± 0.03 | emission of blue fluorescence was observed | emitted green fluorescence | 0.16 ± 0.02 | > 98 | green fluorescence emission was also shown | ≥1650 | 0.12 ± 0.03 | 0.35 ± 0.02
CCCCCCCCCCCCCCCCOP(=O)([O-])OCC[N+](C)(C)C [MILTEFOSINE, miltefosine] | 21.5 ± 2.62 | – | – | – | – | – | 3.3 | – | –
CCCN1CCC=C(c2cc(-c3ccc(C)cc3)no2)C1 [PD-144418] | 10.4 ± 2.3 | – | – | 6.48 ± 2.83 | – | – | 10.35 | 4.71 ± 0.95 | 17.4 ± 3.28
CC(C)N1CCN(c2ccc(OCC3COC(Cn4cncn4)(c4ccc(Cl)cc4Cl)O3)cc2)CC1 (stereo not drawn) [TERCONAZOLE, terconazole] | 2.46 ± 0.28 | – | – | 0.81 ± 0.49 | – | – | 22.99 | 3.68 ± 0.61 | 30.9 ± 2.38
